The text below walks through data of ChEMBL document CHEMBL5154793, “Discovery of Thieno[2,3-d]pyrimidine-based KRAS G12D inhibitors as potential anticancer agents via combinatorial virtual screening” (Eur J Med Chem, 2022).

Holding throughout (assay type): functional, cell-based
The subject of assay [1] is PANC-1. Description: Antiproliferative activity against human PANC1 cells harboring KRAS G12D mutant assessed as inhibition of cell viability after 24 hrs by MTT assay. The settings on record: PANC-1, 24 h.
The subject of assay [2] is SW1990. Description: Antiproliferative activity against human SW1990 cells harboring KRAS G12D mutant assessed as inhibition of cell viability after 24 hrs by MTT assay. The settings on record: SW1990, 24 h. Background: Formazan colour is commonly taken as a measure of viable cells.
Assay [3] has as its system NCI-H358. Put plainly: Antiproliferative activity against human NCI-H358 cells harboring KRAS G12C mutant assessed as inhibition of cell viability after 24 hrs by MTT assay. The settings on record: NCI-H358, 24 h.
In assay [4] the test system is CT26. Put plainly: Antiproliferative activity against mouse CT26 cells harboring KRAS G12D mutant assessed as inhibition of cell viability after 24 hrs by MTT assay. The settings on record: CT26, 24 h.
Assay [5] deals with HCT-116. Put plainly: Antiproliferative activity against human HCT-116 cells harboring KRAS G13D mutant assessed as inhibition of cell viability after 24 hrs by MTT assay. The conditions noted are these: HCT-116, 24 h.
The test system of assay [6] is HeLa. Description: Antiproliferative activity against human HeLa cells harboring wild type KRAS assessed as inhibition of cell viability after 24 hrs by MTT assay.

The term IC50 denotes the concentration needed to halve the response being measured.

For the compound `Fc1ccc(F)c(-c2cc3c(N4CC5CCC(C4)N5)ncnc3s2)c1`, the IC50 in assay [1] was 6.1 µM; in assay [2], 17.8 µM; in assay [3], 21.5 µM; in assay [4], 11.8 µM; in assay [5] it was 27.3 µM; in assay [6], more than 40 µM.
`Fc1cc(-c2cc3c(N4CC5CCC(C4)N5)ncnc3s2)cc(C(F)(F)F)c1`: the IC50 turned out to be 12.9 µM in assay [1], 7.2 µM in assay [2] and 14.7 µM in assay [4].
For `Clc1ccc(-c2cc3c(N4CC5CCC(C4)N5)ncnc3s2)cc1Cl`, the IC50 in assay [1] is 7.5 µM; in assay [2], 12.1 µM; in assay [3] it was 9.4 µM; in assay [4], 7.1 µM; in assay [5] it was 9.9 µM; in assay [6], 12.5 µM.
`c1ccc(-c2cc3c(N4CC5CC(C4)N5)ncnc3s2)cc1`: the values for the IC50 in assay [1], in assay [2] and in assay [4] were 30.5 µM, 40.1 µM and 40.5 µM, respectively.
Regarding `COc1ccc(F)cc1-c1cc2c(N3CC4CCC(C3)N4)ncnc2s1`, the figures for the IC50 in assay [1], in assay [2] and in assay [4] were more than 20 µM, 16.8 µM and 22.6 µM, respectively.
Regarding `FC(F)(F)c1ccc(-c2cc3c(N4CC5CCC(C4)N5)ncnc3s2)cc1`, the IC50 in assay [1] was found to be 10.3 µM; in assay [2], 6.2 µM; in assay [4] it was 6.9 µM.
Consider `COc1ccc(F)c(-c2cc3c(N4CC5CCC(C4)N5)ncnc3s2)c1`, for which the IC50 stood at 7.9 µM in assay [1], 10.2 µM in assay [2] and 9.8 µM in assay [4].
For `Fc1cc(-c2cc3c(N4CC5CCC(C4)N5)ncnc3s2)ccc1Cl`, in that order: 24.7 µM, 15.9 µM and 13 µM.
For `COc1ccc(Cl)cc1-c1cc2c(N3CC4CCC(C3)N4)ncnc2s1`, the IC50 in assay [1] was 4 µM; in assay [2], 4.9 µM; in assay [3], 9.4 µM; in assay [4] it was 5.7 µM; in assay [5], 9.7 µM; in assay [6] it was 8.5 µM.
On to `COc1ccc(-c2cc3c(N4CC5CCC(C4)N5)ncnc3s2)cc1F`, for which the IC50 in assay [1] was 10.2 µM; in assay [2] it was 13.3 µM; in assay [4], 14.1 µM.
For `Fc1ccc(-c2cc3c(N4CC5CCC(C4)N5)ncnc3s2)c(F)c1`, in that order: 13 µM, 13.4 µM and 15.6 µM.
For `Cc1ccc(-c2cc3c(N4CC5CCC(C4)N5)ncnc3s2)c(Cl)c1`, in that order: 11.4 µM, 15.8 µM and 13.8 µM.
For `c1ccc(-c2cccc3ccccc23)c(-c2cc3c(N4CC5CCC(C4)N5)ncnc3s2)c1`, the IC50 in assay [1] was 2.8 µM; in assay [2], 7.7 µM; in assay [4], 12.4 µM; in assay [5], 7.9 µM; in assay [6], 11.5 µM.
Regarding `FC(F)(F)c1ccc(Cl)c(-c2cc3c(N4CC5CCC(C4)N5)ncnc3s2)c1`, the half-inhibitory concentration (IC50) came to 9.4 µM in assay [1], 4.2 µM in assay [2] and 9.7 µM in assay [4].
Turning to `Cc1ccc(-c2cc3c(N4CC5CCC(C4)N5)ncnc3s2)c(C)c1`, the IC50 turned out to be 10.1 µM in assay [1], 5.9 µM in assay [2] and 13.4 µM in assay [4].
For `COc1cc(-c2cc3c(N4CC5CCC(C4)N5)ncnc3s2)cc(OC)c1OC`, in that order: more than 20 µM, more than 20 µM and 25 µM.
As to `COc1ccc(Cl)c(-c2cc3c(N4CC5CCC(C4)N5)ncnc3s2)c1`, the values for the IC50 in assay [1], in assay [2] and in assay [4] were 6.7 µM, 8 µM and 8.4 µM, respectively.
For the compound `COc1cc(-c2cc3c(N4CC5CCC(C4)N5)ncnc3s2)cc(C(F)(F)F)c1`, the IC50 in assay [1] is 7.7 µM; in assay [2] it was 5.8 µM; in assay [3], 4.5 µM; in assay [4] it was 7.2 µM; in assay [5], 8 µM; in assay [6] it was 10.5 µM.
As for `FC(F)(F)c1cc(Cl)cc(-c2cc3c(N4CC5CCC(C4)N5)ncnc3s2)c1`, the IC50 in assay [1] was 5.3 µM; in assay [2], 7.7 µM; in assay [3], 9.1 µM; in assay [4], 6.5 µM; in assay [5], 8.2 µM; in assay [6], 8.8 µM.
Take `Clc1ccc(Cl)c(-c2cc3c(N4CC5CCC(C4)N5)ncnc3s2)c1`: the IC50 in assay [1] was 4.3 µM; in assay [2] it was 7.7 µM; in assay [3], 10.1 µM; in assay [4], 6.5 µM; in assay [5], 15.9 µM; in assay [6], 11.3 µM.
On to `COc1cccc(F)c1-c1cc2c(N3CC4CCC(C3)N4)ncnc2s1`, for which the figures for the IC50 in assay [1], in assay [2] and in assay [4] were 15.2 µM, 18.8 µM and 17 µM, respectively.
As for `O=[N+]([O-])c1ccc(-c2cc3c(N4CC5CCC(C4)N5)ncnc3s2)cc1`, the figures for the IC50 in assay [1], in assay [2] and in assay [4] were 16.8 µM, 8.7 µM and 4.4 µM, respectively.
As for `COc1cc(Cl)ccc1-c1cc2c(N3CC4CCC(C3)N4)ncnc2s1`, the IC50 in assay [1] was found to be 6.8 µM; in assay [2], 9.2 µM; in assay [3], 9.4 µM; in assay [4], 7.2 µM; in assay [5], 4.9 µM; in assay [6] it was 7.7 µM.
Regarding `C=CC(=O)N1CCN(c2ncnc3c(F)c(-c4c(O)cccc4F)c(Cl)cc23)CC1`, the half-inhibitory concentration (IC50) in assay [1] is more than 20 µM; in assay [2], more than 20 µM; in assay [3], 0.2 µM; in assay [4], more than 20 µM; in assay [5], more than 20 µM; in assay [6], more than 20 µM.
